Measurements reported in patent US11572398B2, “GLP-1 derivatives and uses thereof” (Novo Nordisk A/S, priority 2014, dated 2023).
Like-named read-outs stand apart in the source and are kept apart here.

What was measured:
human GLP-1 receptor [1] = target: T1, human GLP-1 receptor (Homo sapiens, UniProt P43220); experiment: GLP-1 receptor binding: competitive binding assay (125I-GLP-1, SPA) on isolated membranes at low and high HSA
T1 construct: expressed in transfected cells; host or cells: BHK cells (parent line BHKTS13), clone FCW467-12A; membrane preparation

[2] = Pharmacokinetic study in minipigs (i.v.); settings: male, Göttingen, minipig, in vivo, iv
Protocol: The purpose of this study is to determine the protraction in vivo of the GLP-1 derivatives after i.v. administration to minipigs, i.e. the prolongation of their time in the body and thereby their time of action. This is done in a pharmacokinetic (PK) study, where the terminal half-life of the derivative in question is determined. By terminal half-life is meant the time it takes to halve a certain plasma concentration in the terminal elimination phase.
Male Göttingen minipigs were obtained from Ellegaard Göttingen Minipigs (Dalmose, Denmark) approximately 7-14 months of age and weighing approximately 16-35 kg were used in the studies. The minipigs were housed either individually (pigs with permanent catheters) or in a group and fed restrictedly once or twice daily with SDS minipig diet (Special Diets Services, Essex, UK).
After at least 2 weeks of acclimatisation two permanent central venous catheters were implanted in vena cava caudalis or cranialis in each animal. The animals were allowed 1 week recovery after the surgery, and were then used for repeated pharmacokinetic studies with a suitable wash-out period between successive GLP-1 derivative dosings.
Blood samples (for example 0.8 ml) were collected in EDTA buffer (8 mM) and then centrifuged at 4° C. and 1942G for 10 minutes.
Plasma was pipetted into Micronic tubes on dry ice, and kept at −20° C. until analysed for plasma concentration of the respective GLP-1 compound using LOCI. Individual plasma concentration-time profiles were analyzed by a non-compartmental pharmacokinetic method in Phoenix v. 6.2 (Pharsight Inc., Mountain View, Calif., USA), or other relevant software for PK analysis, and the resulting terminal half-lives (harmonic mean) determined.

human GLP-1 receptor [3] = target: T1, human GLP-1 receptor; experiment: In vitro potency: CRE luciferase reporter gene assay in BHK cells expressing the human GLP-1 receptor; type: cell-based
Outline: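 Whole-cell assay in stably transfected BHK cells carrying CRE-driven firefly luciferase, 5×10^3 cells/well, in assay buffer with 2% ovalbumin and 0.2% Pluronic F-68. Compound working solutions were 0.2 μM.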

[4] = Low HSA IC50, low HSA (max. 0.001% final assay concentration)
[5] = high HSA (2.0% final assay concentration), read-out: High HSA IC50
[6] = whole cell reporter gene assay, BHK cells, human GLP-1 receptor, average of at least two replicates, read-out: EC50

T1 sequence (P43220 24-463): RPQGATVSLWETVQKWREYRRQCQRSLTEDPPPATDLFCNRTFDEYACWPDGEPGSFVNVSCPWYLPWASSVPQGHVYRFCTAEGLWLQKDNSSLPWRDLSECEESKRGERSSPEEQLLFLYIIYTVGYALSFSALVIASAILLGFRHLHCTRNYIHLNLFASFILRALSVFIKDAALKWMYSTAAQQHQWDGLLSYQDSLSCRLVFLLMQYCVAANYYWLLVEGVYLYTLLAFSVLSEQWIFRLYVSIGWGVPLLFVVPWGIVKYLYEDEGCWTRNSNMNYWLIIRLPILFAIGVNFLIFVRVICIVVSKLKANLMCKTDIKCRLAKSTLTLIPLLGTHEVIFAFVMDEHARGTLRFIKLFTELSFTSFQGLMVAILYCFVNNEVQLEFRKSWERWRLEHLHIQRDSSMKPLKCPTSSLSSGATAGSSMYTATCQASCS

**Q.** For `CC[C@H](C)[C@H](NC(=O)[C@H](Cc1ccccc1)NC(=O)[C@H](CCC(=O)O)NC(=O)[C@H](CCCNC(=N)N)NC(=O)[C@H](C)NC(=O)[C@H](C)NC(=O)[C@H](CCC(N)=O)NC(=O)[C@H](CCC(=O)O)NC(=O)[C@H](CCC(=O)O)NC(=O)[C@H](CC(C)C)NC(=O)[C@H](Cc1ccc(O)cc1)NC(=O)[C@H](CO)NC(=O)[C@H](CO)NC(=O)[C@@H](NC(=O)[C@H](CC(=O)O)NC(=O)[C@H](CO)NC(=O)[C@@H](NC(=O)[C@H](Cc1ccccc1)NC(=O)[C@@H](NC(=O)CNC(=O)[C@H](CCC(=O)O)NC(=O)C(C)(C)NC(=O)[C@@H](N)Cc1c[nH]cn1)[C@@H](C)O)[C@@H](C)O)C(C)C)C(=O)N[C@@H](C)C(=O)N[C@@H](Cc1c[nH]c2ccccc12)C(=O)N[C@@H](CC(C)C)C(=O)N[C@H](C(=O)N[C@@H](CCCNC(=N)N)C(=O)NCC(=O)N[C@@H](CCCNC(=N)N)C(=O)N[C@@H](CCCCNC(=O)COCCOCCNC(=O)COCCOCCNC(=O)COCCOCCNC(=O)COCCOCCNC(=O)CN(CCCNC(=O)COCCOCCNC(=O)COCCOCCNC(=O)CC[C@H](NC(=O)[C@H]1CC[C@H](CNC(=O)CCCCCCCCCCCCCCCCCCC(=O)O)CC1)C(=O)O)CCCNC(=O)COCCOCCNC(=O)COCCOCCNC(=O)CC[C@H](NC(=O)[C@H]1CC[C@H](CNC(=O)CCCCCCCCCCCCCCCCCCC(=O)O)CC1)C(=O)O)C(=O)O)C(C)C` [Example 12], which IC50 (human GLP-1 receptor [1]; [4]) is on record?
**A.** 0.51 nM

**Q.** What about the IC50 (human GLP-1 receptor [1]; [5]) of the same molecule?
**A.** 25 nM

**Q.** And the half-life ([2]; 2 nmol/kg)?
**A.** 137 h

**Q.** And the EC50 (human GLP-1 receptor [3]; [6])?
**A.** 0.02 nM

**Q.** What does the source list for `CC[C@H](C)[C@H](NC(=O)[C@H](Cc1ccccc1)NC(=O)[C@H](CCC(=O)O)NC(=O)[C@H](CCCNC(=N)N)NC(=O)[C@H](C)NC(=O)[C@H](C)NC(=O)[C@H](CCC(N)=O)NC(=O)[C@H](CCC(=O)O)NC(=O)[C@H](CCC(=O)O)NC(=O)[C@H](CC(C)C)NC(=O)[C@H](Cc1ccc(O)cc1)NC(=O)[C@H](CO)NC(=O)[C@H](CO)NC(=O)[C@@H](NC(=O)[C@H](CC(=O)O)NC(=O)[C@H](CO)NC(=O)[C@@H](NC(=O)[C@H](Cc1ccccc1)NC(=O)[C@@H](NC(=O)CNC(=O)[C@H](CCC(=O)O)NC(=O)C(C)(C)NC(=O)[C@@H](N)Cc1c[nH]cn1)[C@@H](C)O)[C@@H](C)O)C(C)C)C(=O)N[C@@H](C)C(=O)N[C@@H](Cc1c[nH]c2ccccc12)C(=O)N[C@@H](CC(C)C)C(=O)N[C@H](C(=O)N[C@@H](CCCNC(=N)N)C(=O)NCC(=O)N[C@@H](CCCNC(=N)N)C(=O)N[C@@H](CCCCNC(=O)CN(CCCNC(=O)COCCOCCNC(=O)COCCOCCNC(=O)COCCOCCNC(=O)COCCOCCNC(=O)COCCOCCNC(=O)COCCOCCNC(=O)CC[C@H](NC(=O)[C@H]1CC[C@H](CNC(=O)CCCCCCCCCCCCCCCCCCC(=O)O)CC1)C(=O)O)CCCNC(=O)COCCOCCNC(=O)COCCOCCNC(=O)COCCOCCNC(=O)COCCOCCNC(=O)COCCOCCNC(=O)COCCOCCNC(=O)CC[C@H](NC(=O)[C@H]1CC[C@H](CNC(=O)CCCCCCCCCCCCCCCCCCC(=O)O)CC1)C(=O)O)C(=O)O)C(C)C` [Example 3]?
**A.** IC50 (human GLP-1 receptor [1]; [4]): 0.41 nM; IC50 (human GLP-1 receptor [1]; [5]): 22 nM; half-life ([2]; 5 nmol/kg): 159 h; EC50 (human GLP-1 receptor [3]; [6]): 0.02 nM

**Q.** Which IC50 (human GLP-1 receptor [1]; High HSA IC50, high HSA (2.0% final assay concentration)) does the source give for `CC[C@H](C)[C@H](NC(=O)[C@H](Cc1ccccc1)NC(=O)[C@H](CCC(=O)O)NC(=O)[C@H](CCCNC(=N)N)NC(=O)[C@H](C)NC(=O)[C@H](C)NC(=O)[C@H](CCC(N)=O)NC(=O)[C@H](CCC(=O)O)NC(=O)[C@H](CCC(=O)O)NC(=O)[C@H](CC(C)C)NC(=O)[C@H](Cc1ccc(O)cc1)NC(=O)[C@H](CO)NC(=O)[C@H](CO)NC(=O)[C@@H](NC(=O)[C@H](CC(=O)O)NC(=O)[C@H](CO)NC(=O)[C@@H](NC(=O)[C@H](Cc1ccccc1)NC(=O)[C@@H](NC(=O)CNC(=O)[C@H](CCC(=O)O)NC(=O)C(C)(C)NC(=O)[C@@H](N)Cc1c[nH]cn1)[C@@H](C)O)[C@@H](C)O)C(C)C)C(=O)N[C@@H](C)C(=O)N[C@@H](Cc1c[nH]c2ccccc12)C(=O)N[C@@H](CC(C)C)C(=O)N[C@H](C(=O)N[C@@H](CCCNC(=N)N)C(=O)NCC(=O)N[C@@H](CCCNC(=N)N)C(=O)N[C@@H](CCCCNC(=O)CN(CCCNC(=O)COCCOCCNC(=O)COCCOCCNC(=O)COCCOCCNC(=O)COCCOCCNC(=O)COCCOCCNC(=O)[C@@H](N)CCCCNC(=O)[C@@H](N)CCCCNC(=O)CCCNC(=O)CCCCCCCCCCCCCCCS(=O)(=O)O)CCCNC(=O)COCCOCCNC(=O)COCCOCCNC(=O)COCCOCCNC(=O)COCCOCCNC(=O)COCCOCCNC(=O)[C@@H](N)CCCCNC(=O)[C@@H](N)CCCCNC(=O)CCCNC(=O)CCCCCCCCCCCCCCCS(=O)(=O)O)C(=O)O)C(C)C` [Example 9, N{Epsilon-37}-[2-[bis[3-[[2-[2-[2-[[2-[2-[2-[[2-[2-[2-[[2-[2-[2-[[2-[2-[2-[[(2S)-2-amino-6-[[(2S)-2-amino-6-[4-(16-sulfohexadecanoylamino)butanoylamino]hexanoyl]amino]hexanoyl]amino]ethoxy]ethoxy]acetyl]amino]ethoxy]ethoxy]acetyl]amino]ethoxy]ethoxy]acetyl]amino]ethoxy]ethoxy]acetyl]amino]ethoxy]ethoxy]acetyl]amino]propyl]amino]acetyl]-[Aib8,Glu22,Arg26,Arg34,Lys37]-GLP-1-(7-37)-peptide] here?
**A.** 29 nM

**Q.** And the IC50 (human GLP-1 receptor [1]; [4])?
**A.** 0.16 nM

**Q.** And the half-life ([2]; 5 nmol/kg)?
**A.** 104 h

**Q.** And the EC50 (human GLP-1 receptor [3])?
**A.** 0.0016 nM

**Q.** What does the source list for `CC[C@H](C)[C@H](NC(=O)[C@H](Cc1ccccc1)NC(=O)[C@H](CCC(=O)O)NC(=O)[C@H](CCCNC(=N)N)NC(=O)[C@H](C)NC(=O)[C@H](C)NC(=O)[C@H](CCC(N)=O)NC(=O)[C@H](CCC(=O)O)NC(=O)[C@H](CCC(=O)O)NC(=O)[C@H](CC(C)C)NC(=O)[C@H](Cc1ccc(O)cc1)NC(=O)[C@H](CO)NC(=O)[C@H](CO)NC(=O)[C@@H](NC(=O)[C@H](CC(=O)O)NC(=O)[C@H](CO)NC(=O)[C@@H](NC(=O)[C@H](Cc1ccccc1)NC(=O)[C@@H](NC(=O)CNC(=O)[C@H](CCC(=O)O)NC(=O)C(C)(C)NC(=O)[C@@H](N)Cc1c[nH]cn1)[C@@H](C)O)[C@@H](C)O)C(C)C)C(=O)N[C@@H](C)C(=O)N[C@@H](Cc1c[nH]c2ccccc12)C(=O)N[C@@H](CC(C)C)C(=O)N[C@H](C(=O)N[C@@H](CCCNC(=N)N)C(=O)NCC(=O)N[C@@H](CCCNC(=N)N)C(=O)N[C@@H](CCCCNC(=O)COCCOCCNC(=O)COCCOCCNC(=O)CN(CCCNC(=O)COCCOCCNC(=O)COCCOCCNC(=O)COCCOCCNC(=O)COCCOCCNC(=O)CC[C@H](NC(=O)[C@H]1CC[C@H](CNC(=O)CCCCCCCCCCCCCCCCCCC(=O)O)CC1)C(=O)O)CCCNC(=O)COCCOCCNC(=O)COCCOCCNC(=O)COCCOCCNC(=O)COCCOCCNC(=O)CC[C@H](NC(=O)[C@H]1CC[C@H](CNC(=O)CCCCCCCCCCCCCCCCCCC(=O)O)CC1)C(=O)O)C(=O)O)C(C)C` [Example 11]?
**A.** IC50 (human GLP-1 receptor [1]; [4]): 0.35 nM; IC50 (human GLP-1 receptor [1]; [5]): 33 nM; half-life ([2]; 2 nmol/kg): 160 h; EC50 (human GLP-1 receptor [3]; [6]): 0.017 nM
